Test results: PubChem BioAssay (NCI)
Several values for one entry are separate records, joined by “and”; a condition that tells them apart may be missing. Equal entries are not always repeated.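 Cultured in 96-well plates, cells were exposed to test compound for 48 hours across five concentrations. Abbreviation: GI50, concentration required for 50% inhibition of growth. At the TGI there is no net growth.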

What was measured:
Assay in all cases: NCI-60 cell line screen, 48 h
[1] = tested on: 786-0 renal
[2] = tested on: A498 renal
[3] = tested on: A549 NSCLC
[4] = tested on: ACHN renal
[5] = tested on: BT-549 breast
[6] = tested on: CAKI-1 renal
[7] = tested on: CCRF-CEM leukemia
[8] = tested on: COLO 205 colon
[9] = tested on: DU-145 prostate
[10] = tested on: EKVX NSCLC
[11] = tested on: HCC-2998 colon
[12] = tested on: HCT-116 colon
[13] = tested on: HCT-15 colon
[14] = tested on: HL-60(TB) leukemia
[15] = tested on: HOP-62 NSCLC
[16] = tested on: HOP-92 NSCLC
[17] = tested on: HS 578T breast
[18] = tested on: HT29 colon
[19] = tested on: IGROV1 ovarian
[20] = tested on: K-562 leukemia
[21] = tested on: KM12 colon
[22] = tested on: LOX IMVI melanoma
[23] = tested on: M14 melanoma
[24] = tested on: MALME-3M melanoma
[25] = tested on: MCF7 breast
[26] = tested on: MDA-MB-231 breast
[27] = tested on: MDA-MB-435
[28] = tested on: MDA-MB-468 breast
[29] = tested on: MOLT-4 leukemia
[30] = tested on: NCI-H226 lung
[31] = tested on: NCI-H23 lung
[32] = tested on: NCI-H460 lung
[33] = tested on: NCI-H522 lung
[34] = tested on: NCI/ADR-RES ovarian
[35] = tested on: OVCAR-3 ovarian
[36] = tested on: OVCAR-4 ovarian
[37] = tested on: OVCAR-5 ovarian
[38] = tested on: OVCAR-8 ovarian
[39] = tested on: PC-3 prostate
[40] = tested on: RPMI-8226 leukemia
[41] = tested on: RXF 393 renal
[42] = tested on: SF-268 CNS
[43] = tested on: SF-295 CNS
[44] = tested on: SF-539 CNS
[45] = tested on: SK-MEL-2 melanoma
[46] = tested on: SK-MEL-28 melanoma
[47] = tested on: SK-MEL-5 melanoma
[48] = tested on: SK-OV-3 ovarian
[49] = tested on: SN12C renal
[50] = tested on: SNB-19 CNS
[51] = tested on: SNB-75 CNS
[52] = tested on: SR leukemia
[53] = tested on: SW-620 colon
[54] = tested on: T-47D breast
[55] = tested on: TK-10 renal
[56] = tested on: U251 CNS
[57] = tested on: UACC-62 melanoma
[58] = tested on: UO-31 renal
[59] = tested on: UACC-257 melanoma

## COc1ccc2cc([C@H](C)C(=O)NCc3ccccc3)ccc2c1
[1]
  GI50: 7.94 µM
  TGI: > 100 µM
[2]
  GI50: > 100 µM
  TGI: > 100 µM
[3]
  GI50: 6.86 µM
  TGI: > 100 µM
[4]
  GI50: 5.93 µM
  TGI: > 100 µM
[5]
  GI50: 5.47 µM
  TGI: > 100 µM
[6]
  GI50: 4.78 µM
  TGI: > 100 µM
[7]
  GI50: 3.9 µM
  TGI: > 100 µM
[8]
  GI50: 3.03 µM
  TGI: 14 µM
[9]
  GI50: 5.52 µM
  TGI: > 100 µM
[10]
  GI50: 3.82 µM
  TGI: > 100 µM
[11]
  GI50: 6.89 µM
  TGI: > 100 µM
[12]
  GI50: 5.21 µM
  TGI: > 100 µM
[13]
  GI50: 3.28 µM
  TGI: > 100 µM
[14]
  GI50: 2.25 µM
  TGI: 7.52 µM
[15]
  GI50: 4.02 µM
  TGI: 76 µM
[16]
  GI50: 7.87 µM
  TGI: 79.2 µM
[17]
  GI50: 3.11 µM
  TGI: 51.7 µM
[18]
  GI50: 3.08 µM
  TGI: > 100 µM
[19]
  GI50: 5.5 µM
  TGI: > 100 µM
[20]
  GI50: 2.19 µM
  TGI: > 100 µM
[21]
  GI50: 4.56 µM
  TGI: > 100 µM
[22]
  GI50: 5.03 µM
  TGI: > 100 µM
[23]
  GI50: 3.61 µM
  TGI: > 100 µM
[24]
  GI50: 3.88 µM
  TGI: > 100 µM
[25]
  GI50: 3.39 µM
  TGI: > 100 µM
[26]
  GI50: 4.72 µM
  TGI: > 100 µM
[27]
  GI50: 1.71 µM
  TGI: 7.53 µM
[28]
  GI50: 1.98 µM
  TGI: 5.52 µM
[29]
  GI50: 4.19 µM
  TGI: > 100 µM
[30]
  GI50: 7.83 µM
  TGI: > 100 µM
[31]
  GI50: 5.48 µM
  TGI: > 100 µM
[32]
  GI50: 3.83 µM
  TGI: > 100 µM
[33]
  GI50: 2.98 µM
  TGI: > 100 µM
[34]
  GI50: 3.11 µM
  TGI: 12.2 µM
[35]
  GI50: 3.21 µM
  TGI: 22.9 µM
[36]
  GI50: 49.3 µM
  TGI: > 100 µM
[37]
  GI50: 7.84 µM
  TGI: > 100 µM
[38]
  GI50: 5.29 µM
  TGI: > 100 µM
[39]
  GI50: 4.44 µM
  TGI: > 100 µM
[40]
  GI50: 5.09 µM
  TGI: > 100 µM
[41]
  GI50: 2.57 µM
  TGI: 9.23 µM
[42]
  GI50: 6.44 µM
  TGI: > 100 µM
[43]
  GI50: 3.23 µM
  TGI: 16 µM
[44]
  GI50: 3.08 µM
  TGI: 11.7 µM
[45]
  GI50: 3.93 µM
  TGI: 34.7 µM
[46]
  GI50: 7.12 µM
  TGI: > 100 µM
[47]
  GI50: 3.17 µM
  TGI: > 100 µM
[48]
  GI50: 3.76 µM
  TGI: 76.7 µM
[49]
  GI50: 4.26 µM
  TGI: > 100 µM
[50]
  GI50: 5.46 µM
  TGI: 40.2 µM
[51]
  GI50: 1.68 µM
  TGI: 7.16 µM
[52]
  GI50: 1.78 µM
  TGI: > 100 µM
[53]
  GI50: 3.43 µM
  TGI: > 100 µM
[54]
  GI50: 4.75 µM
  TGI: > 100 µM
[55]
  GI50: 13 µM
  TGI: > 100 µM
[56]
  GI50: 3.95 µM
  TGI: 73.9 µM
[57]
  GI50: 3.75 µM
  TGI: > 100 µM
[58]
  GI50: 4.35 µM
  TGI: 73.4 µM

## CCCCCc1ccc(S(=O)(=O)Nc2cc(-c3csc(N(C)C(C)=O)n3)ccc2N2CCN(C)CC2)cc1
[1]
  GI50: 2.29 µM
  TGI: 30.8 µM
[2]
  GI50: 9.21 µM
  TGI: > 35.5 µM
[3]
  GI50: 3.34 µM
  TGI: > 35.5 µM
[4]
  GI50: 4.66 µM
  TGI: > 35.5 µM
[5]
  GI50: 9.72 µM
  TGI: > 35.5 µM
[6]
  GI50: 1.86 µM
  TGI: 13.5 µM
[7]
  GI50: 1.02 µM
  TGI: 3.71 µM
[8]
  GI50: 0.626 µM
  TGI: 1.27 µM
[9]
  GI50: 3.93 µM
  TGI: > 35.5 µM
[10]
  GI50: 15.2 µM
  TGI: > 35.5 µM
[11]
  GI50: 1.25 µM
  TGI: 8.55 µM
[12]
  GI50: 1.07 µM
  TGI: 3.67 µM
[13]
  GI50: 1.04 µM
  TGI: > 35.5 µM
[14]
  GI50: 0.807 µM
  TGI: 2.4 µM
[15]
  GI50: 7.85 µM
  TGI: > 35.5 µM
[16]
  GI50: 1.71 µM
  TGI: 15.4 µM
[17]
  GI50: 5.25 µM
  TGI: 35.1 µM
[18]
  GI50: 1.13 µM
  TGI: 3.66 µM
[19]
  GI50: 9.77 µM
  TGI: > 35.5 µM
[20]
  GI50: 1.01 µM
  TGI: > 35.5 µM
[21]
  GI50: 3.61 µM
  TGI: > 35.5 µM
[23]
  GI50: 3.93 µM
  TGI: > 35.5 µM
[24]
  GI50: 5.26 µM
  TGI: 19.7 µM
[25]
  GI50: 0.983 µM
  TGI: 4.09 µM
[26]
  GI50: 1.81 µM
  TGI: 8.34 µM
[27]
  GI50: 2.02 µM
  TGI: > 35.5 µM
[28]
  GI50: 1.62 µM
  TGI: 7.5 µM
[29]
  GI50: 1.4 µM
  TGI: > 35.5 µM
[30]
  GI50: 8.43 µM
  TGI: 33.2 µM
[31]
  GI50: 7.49 µM
  TGI: 31.7 µM
[32]
  TGI: 11.1 µM
[33]
  GI50: 5.51 µM
  TGI: 14.7 µM
[34]
  GI50: 5.75 µM
  TGI: > 35.5 µM
[35]
  GI50: 1.12 µM
  TGI: 12.8 µM
[36]
  GI50: 2.22 µM
  TGI: 29.8 µM
[37]
  GI50: 16.5 µM
  TGI: > 35.5 µM
[38]
  GI50: 10.2 µM
  TGI: > 35.5 µM
[39]
  GI50: 2.2 µM
  TGI: > 35.5 µM
[40]
  GI50: 1.32 µM
  TGI: > 35.5 µM
[41]
  GI50: 2.11 µM
  TGI: 17.9 µM
[42]
  GI50: 7.01 µM
  TGI: > 35.5 µM
[43]
  GI50: 0.754 µM
  TGI: 2.12 µM
[44]
  GI50: 1.21 µM
  TGI: 4.59 µM
[45]
  GI50: 8.64 µM
  TGI: 30.2 µM
[46]
  GI50: 6.76 µM
  TGI: 19.7 µM
[47]
  GI50: 4.47 µM
  TGI: 16.9 µM
[48]
  GI50: 7.29 µM
  TGI: 17.5 µM
[49]
  GI50: 3.73 µM
  TGI: 28.1 µM
[50]
  GI50: 10.9 µM
  TGI: > 35.5 µM
[51]
  GI50: 3.6 µM
  TGI: 15 µM
[52]
  GI50: 1.02 µM
  TGI: 3.6 µM
[54]
  GI50: 2.95 µM
  TGI: > 35.5 µM
[55]
  GI50: 7.43 µM
  TGI: 19.9 µM
[56]
  GI50: 7.43 µM
  TGI: > 35.5 µM
[59]
  GI50: 6.59 µM
  TGI: 26.9 µM
[57]
  GI50: 6.2 µM
  TGI: 12.6 µM
[58]
  GI50: 5.42 µM
  TGI: > 35.5 µM

## Cc1nc2c(-c3cnc(N)nc3)nc(N3CCOCC3)nc2n1C(C)C
[28]
  GI50: 0.105 µM and 0.0734 µM
  TGI: 0.647 µM and 0.398 µM

## N#Cc1c(NN)n(C2OC(CO)C(O)C2O)c2ncnc(N)c12 (stereo not given)
[28]
  GI50: 0.0105 µM
  TGI: 0.0594 µM

## O=C1/C(=C/c2ccc(Br)cc2)COc2ccc(O)c(O)c21
[28]
  GI50: 1.37 µM
  TGI: 3.2 µM
